According to patent US20250382268A1, “METHODS AND COMPOSITIONS FOR SELECTIVELY INHIBITING PATHOGENIC MICROBES” (priority 2019, published 2025):
≈ marks a conversion by molar mass, not a printed value. Read-outs that look alike come from different tables or passages of the source.

Columns and labels:
[1] = system: Burkholderia thailandensis; assay: microbe, parasite or virus in culture; format: cell-based
Burkholderia cenocepacia = assay: microbe, parasite or virus in culture; format: cell-based
HepG2 cells = assay: Cytotoxicity MTT assay in HepG2 cells; format: cell-based; conditions: Homo sapiens
Protocol: Additionally, the antimicrobial compounds were analyzed for cytotoxicity. […] We utilized the standard MTT assay (Promega CellTiter 96) and GraphPad Prism 7 software to determine EC50 values for each analogue. Briefly, 20,000 HepG2 cells in 200 μl of the ATCC recommended media were seeded in each well of a 96-well plate with a moisture barrier created in the outermost wells. The cells were allowed to attach overnight at 37° C., and then observed under phase contrast microscopy for proper morphological characteristics. […] Once incubations were complete, the spectrophotometric absorbance of the samples was measured at a wavelength of 595 nm. […] For the HepaRG assay, NoSpin HepaRG™ cells (Lonza, cat #NSHPRG) were thawed and plated with 20,000 cells per well. They were allowed to attach for 4 h (optimal DME profile per Lonza's testing) before dosing following the identical protocol as above.

Francisella tularensis = assay: microbe, parasite or virus in culture; format: cell-based; conditions: read-out: Francisella tularensis NR-577 MIC, strain NR-577
N. gonorrhoeae = assay: microbe, parasite or virus in culture; format: cell-based; conditions: Neisseria gonorrhoeae
Staphylococcus aureus = assay: microbe, parasite or virus in culture
[2] = Toxicity study in mice, body weight over 7 days; format: in vivo; conditions: 6-week-old Balb/c mice
Source text: The vehicle is 40% PEG300 solution in 0.9% NaCl. […] Thus, the compounds are useful for in vivo antimicrobial administration.

[3] = MRSA, read-out: Staphylococcus aureus MIC, MRSA strain HM-467
[4] = MRSA, read-out: Staphylococcus aureus MIC, MRSA strain NK-41886
[5] = MRSA, read-out: Staphylococcus aureus MIC, MRSA strain NR-13533
[6] = MRSA, read-out: Staphylococcus aureus MIC, MRSA strain NR-28983
[7] = MRSA, read-out: Staphylococcus aureus MIC, MRSA strain NR-41875
[8] = MRSA, read-out: Staphylococcus aureus MIC, MRSA strain NR-41876
[9] = MRSA, read-out: Staphylococcus aureus MIC, MRSA strain NR-41877
[10] = MRSA, read-out: Staphylococcus aureus MIC, MRSA strain NR-41878
[11] = read-out: Staphylococcus aureus MIC, VSSA NR-49121

| Structure (SMILES) | EC50 (HepG2 cells) [µg/mL] | MIC (Staphylococcus aureus; [3]) [µg/mL] | MIC (Staphylococcus aureus; [4]) [µg/mL] | MIC (Staphylococcus aureus; [5]) [µg/mL] | MIC (Staphylococcus aureus; [6]) [µg/mL] | MIC (Staphylococcus aureus; [7]) [µg/mL] | MIC (Staphylococcus aureus; [8]) [µg/mL] | MIC (Staphylococcus aureus; [9]) [µg/mL] | MIC (Staphylococcus aureus; [10]) [µg/mL] | MIC (Staphylococcus aureus; [11]) [µg/mL] | other results |
| --- | --- | --- | --- | --- | --- | --- | --- | --- | --- | --- | --- |
| Oc1ccc(Sc2c[nH]c3ccccc23)cc1 [Compound 156I, 4-((1H-indol-3-yl)thio)phenol] | 12.1 (≈ 50.1 µM) | – | – | – | – | – | – | – | – | – | MBC [1]: 100 µg/mL (≈ 414 µM); MIC [1]: 50 µg/mL (≈ 207 µM); MBC (Burkholderia cenocepacia): 150 µg/mL (≈ 622 µM); MIC (Burkholderia cenocepacia): 50 µg/mL (≈ 207 µM) |
| Brc1ccc(Sc2c[nH]c3ccccc23)cc1 [Compound 156K, 3-((4-bromophenyl)thio)-1H-indole] | 27.6 (≈ 90.7 µM) | – | – | – | – | – | – | – | – | – | – |
| Brc1ccc(Oc2c[nH]c3ccccc23)cc1 [Compound 156KC, 3-(4-bromophenoxy)-1H-indole] | – | – | – | – | – | – | – | – | – | – | MIC (Francisella tularensis): 2 µg/mL (≈ 6.94 µM); MIC (N. gonorrhoeae; read-out: Neisseria gonorrhoeae WHO 901 MIC, strain WHO 901): 8 µg/mL (≈ 27.8 µM); MIC (N. gonorrhoeae; read-out: Neisseria gonorrhoeae WHO 914 MIC, strain WHO 914): 8 µg/mL (≈ 27.8 µM) |
| Brc1ccc(Sc2c[nH]c3ccc(Br)cc23)cc1 [Compound 172D, 5-bromo-3-((4-bromophenyl)thio)-1H-indole] | – | 12.5 (≈ 32.6 µM) | 1.56 (≈ 4.07 µM) | 1.56 (≈ 4.07 µM) | 1.56 (≈ 4.07 µM) | 3.13 (≈ 8.17 µM) | 1.56 (≈ 4.07 µM) | 3.13 (≈ 8.17 µM) | 1.56 (≈ 4.07 µM) | 1.56 (≈ 4.07 µM) | – |
| COc1ccc2[nH]cc(Sc3ccc(Br)cc3)c2c1 [Compound 172E, 3-((4-bromophenyl)thio)-5-methoxy-1H-indole] | 23.3 (≈ 69.7 µM) | – | – | – | – | – | – | – | – | – | – |
| Oc1ccccc1Sc1c[nH]c2ccc(Br)cc12 [Compound 174AI, 2-((5-bromo-1H-indol-3-yl)thio)phenol] | 27.4 (≈ 85.6 µM) | 16 (≈ 50 µM) | 8 (≈ 25 µM) | 8 (≈ 25 µM) | 8 (≈ 25 µM) | 8 (≈ 25 µM) | 8 (≈ 25 µM) | 8 (≈ 25 µM) | 8 (≈ 25 µM) | 8 (≈ 25 µM) | toxicity by body weight [2]: did not have significant toxicity |
| Brc1ccc2[nH]cc(Sc3c[nH]c4ccccc34)c2c1 [Compound 174AL, 3-((1H-indol-3-yl)thio)-5-bromo-1H-indole] | 26.1 (≈ 76 µM) | – | – | – | – | – | – | – | – | – | – |
| OCc1ccccc1Sc1c[nH]c2ccc(Br)cc12 [Compound 174AT, (2-((5-bromo-1H-indol-3-yl)thio)phenyl)methanol] | – | 32 (≈ 95.7 µM) | 16 (≈ 47.9 µM) | 16 (≈ 47.9 µM) | 16 (≈ 47.9 µM) | 16 (≈ 47.9 µM) | 16 (≈ 47.9 µM) | 16 (≈ 47.9 µM) | 16 (≈ 47.9 µM) | 16 (≈ 47.9 µM) | – |
| Fc1ccccc1Sc1c[nH]c2ccc(Br)cc12 [Compound 174AU, 5-bromo-3-((2-fluorophenyl)thio)-1H-indole] | – | 2 (≈ 6.21 µM) | 2 (≈ 6.21 µM) | 2 (≈ 6.21 µM) | 2 (≈ 6.21 µM) | 2 (≈ 6.21 µM) | 2 (≈ 6.21 µM) | 4 (≈ 12.4 µM) | 2 (≈ 6.21 µM) | 4 (≈ 12.4 µM) | toxicity by body weight [2]: did not have significant toxicity |
| FC(F)(F)c1ccccc1Sc1c[nH]c2ccc(Br)cc12 [Compound 174AV, 5-bromo-3-((2-(trifluoromethyl)phenyl)thio)-1H-indole] | – | 2 (≈ 5.37 µM) | 2 (≈ 5.37 µM) | 1 (≈ 2.69 µM) | 1 (≈ 2.69 µM) | 1 (≈ 2.69 µM) | 2 (≈ 5.37 µM) | 2 (≈ 5.37 µM) | 2 (≈ 5.37 µM) | 2 (≈ 5.37 µM) | – |
| FC(F)(F)c1ccc2[nH]cc(Sc3ccccc3Br)c2c1 [Compound 174AX, 3-((2-bromophenyl)thio)-5-(trifluoromethyl)-1H-indole] | – | 2 (≈ 5.37 µM) | 2 (≈ 5.37 µM) | 1 (≈ 2.69 µM) | 2 (≈ 5.37 µM) | 1 (≈ 2.69 µM) | 2 (≈ 5.37 µM) | 2 (≈ 5.37 µM) | 1 (≈ 2.69 µM) | 1 (≈ 2.69 µM) | – |
| Cc1ccccc1Sc1c[nH]c2ccc(Br)cc12 [Compound 174AY, 5-bromo-3-(o-tolylthio)-1H-indole] | – | 4 (≈ 12.6 µM) | 4 (≈ 12.6 µM) | 4 (≈ 12.6 µM) | 4 (≈ 12.6 µM) | 4 (≈ 12.6 µM) | 2 (≈ 6.28 µM) | 2 (≈ 6.28 µM) | 2 (≈ 6.28 µM) | 2 (≈ 6.28 µM) | – |
| Cc1[nH]c2ccc(Br)cc2c1Sc1ccccc1Br [Compound 174AZ, 5-bromo-3-((2-bromophenyl)thio)-2-methyl-1H-indole] | 25.8 (≈ 65 µM) | – | – | – | – | 4 (≈ 10.1 µM) | 2 (≈ 5.04 µM) | – | – | 2 (≈ 5.04 µM) | toxicity by body weight [2]: did not have significant toxicity |
| Clc1ccc2[nH]cc(Sc3ccc(Br)cc3)c2c1 [Compound 174C, 3-((4-bromophenyl)thio)-5-chloro-1H-indole] | 25.4 (≈ 75 µM) | – | – | – | – | – | – | – | – | – | – |
| Brc1ccc(Sc2c[nH]c3cccc(Br)c23)cc1 [Compound 174D, 4-bromo-3-((4-bromophenyl)thio)-1H-indole] | 23.2 (≈ 60.6 µM) | – | – | – | – | – | – | – | – | – | – |
| Fc1ccc2[nH]cc(Sc3ccc(Br)cc3)c2c1 [Compound 174E, 3-((4-bromophenyl)thio)-5-fluoro-1H-indole] | 23.6 (≈ 73.2 µM) | – | – | – | – | – | – | – | – | – | – |
